Experimental data: patent publication US20150105252A1, “SUBSTITUTED PYRAZOLES AS HERBICIDES” (E I DU PONT DE NEMOURS AND COMPANY, priority 2013, published 2015)

Experiments:
Assay in all cases: Test F preemergence
pigweed, palmer = type: in vivo, Amaranthus palmeri
From the text: (§1) Seeds of plant species selected from corn (Zea mays), soybean (Glycine max), velvetleaf (Abutilon theophrasti), lambsquarters (Chenopodium album), wild poinsettia (Euphorbia heterophylla), pigweed, palmer (palmer pigweed, Amaranthus palmeri), common waterhemp (Amaranthus rudis), surinam grass (Brachiaria decumbens), large crabgrass (Digitaria sanguinalis), crabgrass, Brazil (Brazilian crabgrass, Digitaria horizontalis), fall panicum (Panicum dichotomiflorum), giant foxtail (Setaria faberii), green foxtail (Setaria viridis), goosegrass (Eleusine indica), johnsongrass (Sorghum halepense), common ragweed (Ambrosia elation), barnyardgrass (Echinochloa crus-galli), southern sandbur (Cenchrus echinatus), arrowleaf sida (Sida rhombifolia), Italian ryegrass (Lolium multiflorum), dayflower, VA (Virginia (VA) dayflower, Commelina virginica), field bindweed (Convolvulus arvensis), cocklebur (common cocklebur, Xanthium strumarium), morningglory (Ipomoea coccinea), nightshade (eastern black nightshade, Solanum ptycanthum), kochia (Kochia scoparia), yellow nutsedge (Cyperus esculentus), and hairy beggarticks (Bidens pilosa), were planted into a silt loam soil and treated preemergence with test chemicals formulated in a non-phytotoxic solvent mixture which included a surfactant.
(§2) At the same time, plants from these crop and weed species and also horseweed (Canada horseweed, Conyza canadensis), smartweed (ladysthumb smartweed, Polygonum persicaria), waterhemp_RES1, (ALS & Triazine resistant common waterhemp, Amaranthus rudis), and waterhemp_RES2, (ALS & HPPD resistant common waterhemp, Amaranthus rudis) were treated with postemergence applications of test chemicals formulated in the same manner. Plants ranged in height from 2 to 18 cm for postemergence treatments (1- to 4-leaf stage). Treated plants and controls were maintained in a greenhouse for 14 to 21 days, after which time all species were compared to controls and visually evaluated. Plant response ratings, summarized in Table F, are based on a scale of 0 to 100 where 0 is no effect and 100 is complete control. A dash (-) response means no test result.

giant foxtail = type: in vivo, Setaria faberii
Summary of the method: (§3)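 Visual injury was scored from 0 (none) to 100 (complete control) relative to untreated controls after 14–21 days in a greenhouse. Before that, formulated compound (solvent plus surfactant) was sprayed either on silt-loam soil right after sowing or on emerged plants at the 1–4-leaf stage, 2–18 cm tall.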

arrowleaf sida = type: in vivo, Sida rhombifolia
Summary of the method: as §3

green foxtail = type: in vivo, Setaria viridis
From the text: as §1, §2

wild poinsettia = type: in vivo, Euphorbia heterophylla
Summary of the method: as §3

yellow nutsedge = type: in vivo, Cyperus esculentus
From the text: as §1, §2

nightshade = type: in vivo, Solanum ptycanthum
From the text: as §1, §2

velvetleaf = type: in vivo, Abutilon theophrasti
Summary of the method: as §3

southern sandbur = type: in vivo, Cenchrus echinatus
Summary of the method: as §3

[1] = Preemergence, 62 g ai/ha, scale 0 to 100
[2] = Preemergence, 125 g ai/ha, scale 0 to 100
[3] = Preemergence, 250 g ai/ha, scale 0 to 100
[4] = preemergence, 16 g ai/ha, scale 0 to 100, 100 is complete control
[5] = Preemergence, 16 g ai/ha, scale 0 to 100

Row | Compound | Plant response rating, Pigweed, Palmer (pigweed, palmer; [1]) | Plant response rating, Pigweed, Palmer (pigweed, palmer; [2]) | Plant response rating, Pigweed, Palmer (pigweed, palmer; [3]) | Plant response rating, Giant Foxtail (giant foxtail; [1]) | Plant response rating, Giant Foxtail (giant foxtail; [2]) | Plant response rating, Giant Foxtail (giant foxtail; [3]) | Plant response rating, Arrowleaf Sida (arrowleaf sida; [1]) | Plant response rating, Arrowleaf Sida (arrowleaf sida; [2]) | Plant response rating, Arrowleaf Sida (arrowleaf sida; [3]) | Plant response rating, Green Foxtail (green foxtail; [1]) | Plant response rating, Green Foxtail (green foxtail; [2]) | Plant response rating, Green Foxtail (green foxtail; [3]) | Plant response rating, Wild Poinsettia (wild poinsettia; [1]) | Plant response rating, Wild Poinsettia (wild poinsettia; [2]) | Plant response rating, Wild Poinsettia (wild poinsettia; [3]) | Plant response rating, Yellow Nutsedge (yellow nutsedge; [1]) | Plant response rating, Yellow Nutsedge (yellow nutsedge; [2]) | Plant response rating, Yellow Nutsedge (yellow nutsedge; [3]) | Plant response rating, Nightshade (nightshade; [2]) | Plant response rating, Nightshade (nightshade; [3]) | further results
1 | CCCc1cc(C(=O)NC(C)C)nn1Cc1cc(C(F)(F)F)nn1C [Compound 201] | 40 | 65 | 90 | 75 | 75 | 100 | 0 | 0 | 75 | 40 | 75 | 80 | 5 | 25 | 65 | 0 | 0 | 25 | 95 | 98 | Plant response rating, Pigweed, Palmer (pigweed, palmer; [4]): 0; Plant response rating, Giant Foxtail (giant foxtail; [4]): 0; Plant response rating, Arrowleaf Sida (arrowleaf sida; [5]): 0; Plant response rating, Arrowleaf Sida (arrowleaf sida; [4]): 0; Plant response rating, Green Foxtail (green foxtail; [4]): 0; Plant response rating, Wild Poinsettia (wild poinsettia; [4]): 0; Plant response rating, Yellow Nutsedge (yellow nutsedge; [4]): 0; Plant response rating, Nightshade (nightshade; [5]): 10; Plant response rating, Nightshade (nightshade; [1]): 80; Plant response rating, Nightshade (nightshade; [4]): 0; Plant response rating, Velvetleaf (velvetleaf; [1]): 0; Plant response rating, Velvetleaf (velvetleaf; [2]): 30; Plant response rating, Velvetleaf (velvetleaf; [3]): 100; Plant response rating, Velvetleaf (velvetleaf; [4]): 0; Plant response rating, Velvetleaf (velvetleaf; preemergence, scale 0 to 100, 100 is complete control): 0; Plant response rating, Southern Sandbur (southern sandbur; [1]): 0; Plant response rating, Southern Sandbur (southern sandbur; [2]): 30; Plant response rating, Southern Sandbur (southern sandbur; [3]): 75; Plant response rating, Southern Sandbur (southern sandbur; [4]): 0
2 | CCc1cc(C(=O)NCC(F)(F)F)nn1Cc1ccnc(Br)c1 [Compound 224] | 100 | 100 | 100 | 40 | 75 | 98 | 35 | 30 | 35 | 35 | 70 | 95 | 60 | 65 | 85 | 0 | 35 | 35 | 0 | 95 | Plant response rating, Velvetleaf (velvetleaf; [1]): 50; Plant response rating, Velvetleaf (velvetleaf; [2]): 80; Plant response rating, Velvetleaf (velvetleaf; [3]): 95; Plant response rating, Southern Sandbur (southern sandbur; [1]): 5; Plant response rating, Southern Sandbur (southern sandbur; [2]): 35; Plant response rating, Southern Sandbur (southern sandbur; [3]): 15
